Results published in patent publication US20200123555A1, “USE OF MALONYLTRANSFERASE GENE” (Suntory Holdings Limited, priority 2017, published 2020).

Assays:
[1] = system: Dm3MaT1; experiment: Enzyme activity, protein solution crudely extracted from Escherichia coli expressing Dm3MaT1; type: biochemical, chrysanthemum; conditions: substrate with malonyl-CoA, 20 minutes at 30° C., pH 7.0, detection 330 nm
[2] = system: Dm3MaT3; experiment: Enzyme activity, protein solution crudely extracted from Escherichia coli expressing Dm3MaT3; type: biochemical, chrysanthemum; conditions: substrate with malonyl-CoA
Method: The Shim-Pack ODS 150 mm×4.6 mm column (Shimadzu Corp.) was used for the column. […] The flow rate was 0.6 ml/min.

[3] = system: Dm3MaT2; experiment: Enzyme activity, protein solution crudely extracted from Escherichia coli expressing Dm3MaT2; type: biochemical, chrysanthemum; conditions: substrate with malonyl-CoA, 20 minutes at 30° C., pH 7.0, detection 330 nm
[4] = system: Dm3MaT3; experiment: Enzyme activity, His-tag purified Dm3MaT3 protein solution; type: biochemical, chrysanthemum; conditions: 10 μg Dm3MaT3 protein, 5 μl of 500 μg/ml substrate, malonyl-CoA, 20 minutes at 30° C., pH 7.0
Method: The Escherichia coli strain BL21 introduced with pET32a-Dm3MaT3 described in Example 1 was cultured using the Overnight Express Autoinduction System 1 (Novagen) in accordance with the protocol recommended by the manufacturer. The transformed Escherichia coli was cultured at 37° C. in 8 ml of prepared culture broth until the OD600 value reached 0.5 (approximately 4 hours). This Escherichia coli broth was used as pre-culture broth and added to 200 ml of culture broth followed by culturing overnight at 25° C.
After culturing overnight, the Escherichia coli broth was centrifuged (1000×g, 4° C., 10 minutes) and the harvested bacterial cells were suspended in 20 ml of extraction buffer (composition: 300 mM KCl, 50 mM KH2PO4, 5 mM imidazole (pH 8.0), 10 μM amidinophenylmethanesulfonyl fluoride hydrochloride (APMSF)) followed by disrupting the Escherichia coli by ultrasonication, centrifuging (1400×g, 4° C., 20 minutes) and recovering the supernatant. The supernatant was passed through a 0.45 μm and subjected to His-Tagged purification using Profinia (Bio-Rad) in accordance with the protocol recommended by the manufacturer. The resulting purified protein solution was centrifuged (7500×g, 4° C., 15 minutes) using Centrifugal Filters (Ultracel-10K, Amicon Ultra) and the concentrated protein solution was used as “Dm3MaT3 protein solution”. The Avanti HP-26XP (rotor: JA-2) (Beckman Coulter) was used for centrifugation.
A reaction solution, obtained by mixing 30 μl of Dm3MaT3 protein solution (10 μg), 5 μl of 1 mg/ml malonyl-CoA, 5 μl of 1 M KPB (pH 7.0), 5 μl of 500 μg/ml luteolin 7-glucoside (dissolved in a 50% aqueous acetonitrile solution containing 0.1% TFA) and adjusting to a volume of 100 μl with water on ice, was held for 20 minutes at 30° C. Subsequently, 100 μl of stop buffer (90% aqueous acetonitrile solution containing 0.1% TFA) were added to stop the reaction followed by analyzing the reaction solution by high-performance liquid chromatography (Prominence, Shimadzu Corp.). Flavone was detected at 330 nm using the Shimadzu PDA SPD-M20A for the detector. […]

[5] = system: Dm3MaT3; experiment: Malonyl transfer activity of flower petal crude enzyme solution from genetically engineered rose introduced with Dm3MaT3 gene; type: biochemical; conditions: 2.5 μl of 1 mM apigenin, malonyl-CoA, 20 minutes at 30° C.; genetically engineered rose petals
From the text: In order to confirm that the Dm3MaT3 gene of the present invention encodes a protein having activity that transfers a malonyl group to position 6 of the glucose at position 7 of flavone 7-glucoside in plants, a binary vector pSPB7136 was constructed to express Dm3MaT3 in plants (see FIG. 8) and subsequently introduced into a rose (variety: Ocean Song). pBINPLUS (Van Engel et al., Transgenic Research 4, 288) was used for the basic skeleton, E1235S promoter (Mitsuhara et al., (1996) Plant Cell Physiol., 37, p. 49) was used for the promoter expressing Dm3MaT3 gene, and HSP terminator (Plant Cell Physiol. (2010) 51, 328-332) was used for the terminator in pSPB7136.
A crude enzyme solution was prepared from the petals of a rose strain in which was synthesized the transcription product of full-length cDNA Dm3MaT3 followed by an evaluation of the presence or absence of activity transferring a malonyl group to position 6 of the glucose at position 7 of flavone 7-glucoside. […]
A reaction solution, obtained by mixing 20 μl of the flower petal crude enzyme solution, 5 μl of 1 mg/ml malonyl-CoA, 5 μl of 1 M KPB (pH 7.0) and 2.5 μl of 1 mM apigenin (dissolved in 50% aqueous acetonitrile solution containing 0.1% TFA) and adjusting to a volume of 100 μl with water on ice, was held for 20 minutes at 30° C. […] Flavone was detected at 330 nm using the Shimadzu PDA SPD-M20A for the detector. […]

For O=c1cc(-c2ccc(O)c(O)c2)oc2cc(O[C@@H]3O[C@H](CO)[C@@H](O)[C@H](O)[C@H]3O)cc(O)c12 [luteolin 7-glucoside], the “peak corresponding to luteolin 7-malonylglucoside (HPLC)” value [1] was “not detected”, the “peak corresponding to luteolin 7-malonylglucoside (HPLC)” value ([2]; 20 minutes at 30° C., pH 7.0, detection 330 nm) was “detected” and the “peak corresponding to luteolin 7-malonylglucoside (HPLC)” value [3] was “not detected”. The “reaction rate (percentage of substrate converted)” value [4] was 81.13%.
With OC[C@H]1O[C@@H](Oc2cc3c(O)cc(O)cc3[o+]c2-c2ccc(O)c(O)c2)[C@H](O)[C@@H](O)[C@@H]1O [cyanidin 3-glucoside] the “amount of cyanidin 3-glucoside consumed in comparison with Dm3MaT1” value ([2]; detection 520 nm) was “clearly less” and the “peak corresponding to cyanidin 3-malonylglucoside (HPLC)” value ([2]; detection 520 nm) was “detected”.
In the case of O=c1cc(-c2ccc(O)cc2)oc2cc(O[C@@H]3O[C@H](CO)[C@@H](O)[C@H](O)[C@H]3O)cc(O)c12 [apigenin 7-glucoside], the “reaction rate (percentage of substrate converted)” value [4] is reported as 85.80%.
In the case of O=c1cc(-c2ccc(O)cc2)oc2cc(O)cc(O)c12 [apigenin], the “peak corresponding to 7-malonylglucoside, share of the apigenin compounds in the enzyme reaction solution” value [5] is reported as 2.04%.
In the case of O=c1cc(-c2ccc(O[C@@H]3O[C@H](CO)[C@@H](O)[C@H](O)[C@H]3O)c(O)c2)oc2cc(O)cc(O)c12 [luteolin 4′-glucoside], the “reaction rate (percentage of substrate converted)” value [4] is reported as 34.81%.
